Experimental findings from patent US20210347823A1, “METHODS OF PHYSICOCHEMICAL-GUIDED PEPTIDE DESIGN AND NOVEL PEPTIDES DERIVED THEREFROM” (Massachusetts Institute of Technology, priority 2018, published 2021) are described below.

For data set [1], the system named is Gram-positive bacteria, Gram-negative bacteria and fungi (twelve different strains). Briefly: Liquid growth inhibition MIC against larger panel of microorganisms (MIC average). The format is cell-based. To be noted: average of MIC over twelve different strains. An excerpt:
FIGS. 5A-5D. Antimicrobial activity of second-generation library of synthetic peptides. FIG. 5A. In vitro activity of Pol-CP—NH2 and second generation of analogs against Gram-positive bacteria (Micrococcus luteus, Staphylococcus aureus, Staphylococcus epidermidis and Bacillus megaterium), Funghi (Candida albicans and Candida tropicalis) and Gram-negative bacteria (Escherichia coli, Enterobacter cloacae and Serratia marcescens). Experiments performed in triplicates. FIG. 5B. MIC (μmol L^−1) average vs fH in TFE/Water solution. FIG. 5C. Graph correlating MIC (μmol L^−1) averages vs H and (FIG. 5D) MIC (μmol L^−1) averages vs μH, where dots above the dashed line represent peptides with lower activity and dots below the dashed line show peptides with higher activity compared to the wild-type, in which one can observe ranges of optimal activity in determined intervals of H and μH values.
Microorganisms. The following strains were used: Micrococcus luteus A270, Staphylococcus aureus ATCC29213, Staphylococcus epidermidis ATCC12228, Bacillus megaterium ATCC10778 Escherichia coli SBS 363, Enterobacter cloacae ®-12, Serratia marcescens ATCC4112, Candida albicans MDM8, Candida tropicalis IOC4560 from Instituto Butanta, Sao Paulo, Brazil, and Escherichia coli BL21, Pseudomonas aeruginosa PA14, Pseudomonas aeruginosa PA01 and Staphylococcus aureus ATCC12600 from Synthetic Biology Group at MIT.
MIC assays. The MIC assays were performed using the broth microdilution method (Wiegand I. et al., Protoc. 3, 163-175 (2008); de la Fuente-Núñez C. et al., Antimicrob. Agents Chemother. 56, 2696-2704 (2012)) in sterile 96-well polypropylene microtiter plates. Peptides were added to the plate as solutions in BM2 minimal medium in concentrations ranging from 0 to 128 ? mol L^−1, and the bacteria were inoculated at a final concentration of 5×10^5 CFU mL^−1 per well. The plates were incubated at 37° C. for 24 h. The MIC was defined as the lowest concentration of compound at which no growth was observed. Additional liquid growth inhibition assays were done in Peptone Broth (PB, 0.5% NaCl, 1% Peptone at pH 7.4) and Potato Dextrose Broth (Invitrogen) were used for antibacterial and antifungal assays, respectively. Briefly, bacteria or fungi were incubated with serial dilutions of polybia-CP and analogs (50-0.09 μmol L^−1) in a 96-well microplate at 37° C. The microbial growth was assessed by measurements in a model 354 Multiskan Ascent microplate reader at A595nm, after 18 and 24 h (bacteria and fungi, respectively) incubation on a model 347CD FANEM incubator. MIC was defined as the minimal inhibitory concentration that prevents 100% of the bacterial growth. All assays were done in triplicate.

Data set [2] deals with human red blood cells. Kind of data set: Hemolytic activity assay. The format is cell-based. Particulars: for HC50: concentration needed for 50% hemolysis, human RBC in PBS, room temperature, 1 h, 0.1-100 μmol L^−1. The procedure: (§1) FIGS. 6A-6B. Hemolysis and resistance to protease-mediated degradation of engineered peptides. FIG. 6A. Schematic of experimental design and hemolytic assay results of Pol-CP—NH2 and derivatives, where hemolytic activity was evaluated by incubating the peptides (0.1-100 μmol L^−1) with human red blood cells in PBS at room temperature for 1 h. Experiments were performed in triplicate, (*p<0.05). FIG. 6B. Resistance to degradation of Pol-CP—NH2 and analogs exposed to fetal bovine serum (FBS) proteases for 6 h. Experiments were done in triplicate.
Hemolytic Activity Assays. Human erythrocytes were collected and washed three times by centrifugation at 300×g with PBS (pH 7.4). After the last centrifugation, the cells were resuspended in PBS pH 7.4. Aliquots at a concentration of 0.1 to 100 ? mol L^−1 of the peptides were added to the 96-well microplate, where in each well containing 50 ? L of a suspension of erythrocytes to 0.4% in a phosphate saline buffer (10 mmol L^−1 Na2HPO4, 1.8 mmol L^−1 […], pH 7.4, 137 mmol L^−1 NaCl and 2.7 mmol L^−1KCl). After that, the samples were incubated at room temperature for 1 h. Hemolysis was determined by reading absorbance at 405 nm of each well in a bed of plates. 1% SDS in PBS solution was used as positive control (Shalel S. et al., J. Colloid Interface Sci. 252, 66-76 (2002); Love L. J. Cell. Comp. Physiol. 36, 133-148 (1950)) and as negative control was used PBS only. MHC was defined as the maximal non-hemolytic concentration.

Data set [3] is described as follows: Stability assay in fetal bovine serum. The format is in vitro ADME. Particulars: for resistance to protease-mediated degradation: fetal bovine serum, 6 h. Here is the method: as §1
Stability Assays. The stability assay was performed with GIBCO fetal bovine serum diluted to 25% in water. 20 ? L of a 10 mg mL^−1 peptide solution was added to 1 mL 25% serum solution and kept at 37° C. The experiments were made in triplicate and 100 ? L aliquots were taken at 0, 0.5, 1, 2, 4 and 6 h. 10 ? L of TFA was added to the aliquots and the new solution was kept at 5° C. for 10 min, after that it was centrifuged at 14,000 rpm for 15 min, according to Powell et al. (Powell M. F. et al., Pharm. Res. 10, 1268-1273 (1993)). The reaction kinetics was followed by liquid chromatography and the percentage of remaining peptide was calculated by integrating the peptide peak area.

Data set [4] relates to HEK293 human embryonic kidney cells. Briefly: Cytotoxicity assay (MTS). In kind it is cell-based. Particulars: for Cytotoxicity: HEK293, 48 h, MTS, peptides 0-64 μmol L^−1. Here is the method:
FIGS. 7A-7B. Cytotoxicity of engineered peptides. FIG. 7A. Schematic of the experimental design for cytotoxicity assays of Pol-CP—NH2 and derivatives against HEK293 human embryonic kidney cells. Briefly, cells were cultured in DMEM medium supplemented with FBS and antibiotics at 37° C. and 5% CO2. FIG. 7B. Results obtained by seeding HEK293 50,000 cells and incubating with peptides' solution (0-64 μmol L^−1) at 37° C. for 48 h. Cell viability was measured by MTS assay. All experiments were performed in triplicate.
Cytotoxicity assays. Human embryonic kidney 293 (HEK 293) cells were cultured in Dulbecco's Modified Eagle Medium (DMEM) supplemented with 10% Fetal Bovine Serum (FBS) and 1% penicillin-streptomycin at 37° C. in 5% CO2. The day before treatment, 50,000 HEK 293 cells were seeded into each well in 96-well plates. The peptides were added at concentrations ranging from 0 to 64 ? mol L^−1 and 48 h after exposure, cell viability was measured by means of MTS (dimethylthiazol-carboxymethoxyphenyl-sulfophenyl-tetrazolium) assay. Experiments were performed in triplicate for each condition.

The test system of data set [5] is E. coli BL21, P. aeruginosa PA01 and PA14, and S. aureus ATCC12600. Kind of data set: In vitro antimicrobial activity against first set of bacteria (Ala-scan analogs). The format is cell-based. To be noted: Gram-positive and Gram-negative bacteria. The text has this:
FIGS. 2A-2E. Design, physicochemical features and activity of Pol-CP—NH2 and Ala-scan analogs. FIG. 2A. Theoretical physicochemical properties of interest of the wild type and Ala-scan analogs, where H denotes hydrophobicity, μH is the hydrophobic moment, q represents the net charge and P/N is the ratio of polar/non-polar residues in the sequence. Top to bottom, left to right the sequences correspond to SEQ ID NOs: 1-13. FIG. 2B. Schematic of the in vitro biological activity experimental design. Briefly, 10^4 bacterial cells and serially diluted peptides (0-128 μmol L^−1) were added to a 96-well plate and incubated at 37° C. One day after the exposure, the solution in each well was measured in a microplate reader (600 nm) to check inhibition of bacteria compared to the untreated controls and presented as heat maps of antimicrobial activities (μmol L^−1) against four bacteria strains: E. coli strain BL21, S. aureus strain ATCC12600 and P. aeruginosa strains PA01, and PA14. Assays were performed in triplicates. FIG. 2C. Graph correlating MIC (μmol L^−1) averages vs H and (FIG. 2D) MIC (μmol L^−1) averages vs μH, where dots […] the dashed line show peptides with higher activity compared to the wild type, in which one can observe ranges of optimal activity in determined intervals of H and μH values. FIG. 2E. […]

Where no end group is shown, it is not given here.

For `CC[C@H](C)[C@H](N)C(=O)N[C@@H](CC(C)C)C(=O)NCC(=O)N[C@H](C(=O)N[C@H](C(=O)N[C@@H](CC(C)C)C(=O)NCC(=O)N[C@@H](CC(C)C)C(=O)N[C@@H](CC(C)C)C(=O)N[C@@H](CCCCN)C(=O)N[C@@H](CO)C(N)=O)[C@@H](C)CC)[C@@H](C)O` [Peptide 18], the “MIC Average” value in data set [1] is >50.0 µM. Also, the HC50 in data set [2] was >100.0 µmol/L.

On to “GLGTILGLLKSL-NH2 [Peptide 20, GLGTILGLLKSL-NH2]”, for which the “MIC Average” value in data set [1] stood at 16.7 µM. Besides, in data set [2], the HC50 was >100.0 µmol/L. The “resistance to protease-mediated degradation” value in data set [3] is reported as “degraded in a few minutes”. In data set [4], the Cytotoxicity was >64.0 µmol/L.

For the compound “ILATILGLLKSL-NH2 [Peptide 3, ILATILGLLKSL-NH2]”, the Cytotoxicity in data set [4] was >64.0 µmol/L.

“ILGKILGLLKSL-NH2 [Peptide 15, ILGKILGLLKSL-NH2]”: the “MIC Average” value in data set [1] was 3.3 µM. For the same compound, the HC50 in data set [2] was >100.0 µmol/L. The remaining at 6 h, 0.196 mg/mL in data set [3] (fetal bovine serum diluted to 25% in water, after six hours of exposure to fetal bovine serum, read-out: remaining peptide (% of initial concentration added)) was ~50%. The “resistance to protease-mediated degradation” value in data set [3] was “increased resistance to protease-mediated degradation”. The compound also had a Cytotoxicity in data set [4] of 32.0 µmol/L. Besides, the “cytotoxic concentration relative to MIC against P. aeruginosa” value in data set [4] (HEK293 cytotoxicity vs MIC) is “two- to four-fold higher”.

Regarding “ILGTALGLLKSL-NH2 [Peptide 5, ILGTALGLLKSL-NH2]”, in data set [4], the Cytotoxicity was >64.0 µmol/L.

Take ILGTIAGLLKSL-NH2 [Peptide 6]: the “antimicrobial activity compared with wild type” value in data set [5] was “preserved the antimicrobial activity”.

“ILGTILALLKSL-NH2 [Peptide 7, ILGTILALLKSL-NH2]” had a Cytotoxicity in data set [4] of 32.0 µmol/L.

Consider “ILGTILGLFKSL-NH2 [Peptide 17, ILGTILGLFKSL-NH2]”, for which, in data set [1], the “MIC Average” value amounted to 20.0 µM. Also, the HC50 in data set [2] worked out at 50.0 µmol/L. Further, the “hemolytic activity (concentration at which hemolytic)” value in data set [2] (human red blood cells, range evaluated 0-100 μmol L^−1, listed as [Phe]^9-Pol-CP—NH2) is ~50 µmol/L. The “hemolytic activity” value in data set [2] (range of concentrations evaluated 0-100 μmol L^−1) was “hemolytic”.

“ILGTILGLLKAL-NH2 [Peptide 11, ILGTILGLLKAL-NH2]”: in data set [4], the Cytotoxicity was determined as 64.0 µmol/L.

With “ILGTKLGLLKSL-NH2 [Peptide 14, ILGTKLGLLKSL-NH2]”, in data set [1], the “MIC Average” value was >50.0 µM. Also, the HC50 in data set [2] was >100.0 µmol/L.

With “ILGTLLGLKKSL-NH2 [Peptide 13, ILGTLLGLKKSL-NH2]”, the “MIC Average” value in data set [1] was >50.0 µM. The HC50 in data set [2] was >100.0 µmol/L.
